# According to ChEMBL document CHEMBL2202954, “The effect of PLC-γ2 inhibitors on the growth of human tumour cells” (2012):
# System: MDA-MB-435
# Experiment: Cytotoxicity against human MDA-MB-435 cells by SRB assay
# Format: functional
# Settings: for CC50: read-out: LC50 (the source's name)
Compound,GI50 [nM],TGI [nM],CC50 [nM]
Nc1c(C(=O)Nc2ccccc2F)sc2nc3c(cc12)C(=O)CCC3,196,567,8000
Cc1ccccc1NC(=O)c1sc2nc3c(cc2c1N)C(=O)CCC3,331,1980,
Nc1c(C(=O)Nc2cccc(Cl)c2)sc2nc3c(cc12)C(=O)CCC3,45,270,900
Nc1c(C(=O)Nc2ccccc2)sc2nc3c(cc12)C(=O)CCC3,89,297,
Cc1cc(C)c(NC(=O)c2sc3nc4c(cc3c2N)C(=O)CCC4)c(C)c1,267,1160,
Cc1ccc(Cl)cc1NC(=O)c1sc2nc3c(cc2c1N)C(=O)CCC3,1100,5040,
